Reference: patent US11541032B2, “Composition containing sumo inhibitor and application” (CHINA PHARMACEUTICAL UNIVERSITY, priority 2018, dated 2023)

Tests used:
Format in all cases: cell-based, Rat
FXR signaling pathway = assay: RT-PCR of FXR target gene Shp mRNA in quiescent and TGF-β-activated HSC-T6 cells; conditions: for mRNA expression of Shp: activated HSCs, in the presence of SUMO inhibitor SP; for mRNA level of Shp: activated state (TGF-β1 incubation) HSC-T6 cells; for mRNA level of Shp / mRNA level of Shp, an FXR target gene: agonist 5 μM, 12 h; for mRNA level of Shp, an FXR target gene: quiescent HSC-T6 cells
Description: (§1) HSC-T6 cells, seeded and cultured in a proper density, were treated with TGF-β([…]) or OCA (5 μM) or GW40064 (5 μM) or WAY-362450 (5 μM) for 12 h before collection.
1) After the cells were cleaned by PBS, 800 μl of a Trizol reagent was added. After repeated blowing by a pipette, the cells were transferred into an EP tube to be subjected to still standing for 5 min at the room temperature.
2) 160 μl of chloroform was added, and violent oscillation was performed for 15 sec. After still standing for 5 min at the room temperature, 12000 g centrifugation was performed for 15 min. The sample was divided into three layers including a bottom layer being a yellow organic phase, an upper layer being a colorless water phase, and a middle layer.
3) 300 μl of the upper layer water phase was carefully transferred into a new tube. 300 μl of isopropanol was added. After uniform mixing through reversing, still standing was performed for 10 min at the room temperature. Then, 12000 g centrifugation was performed for 10 min. Supernatant was abandoned.
4) RNA precipitates were washed by 1.0 ml of precooled 75% ethanol. Then, 12000 g centrifugation was performed for 5 min. Supernatant was abandoned to obtain total RNA. Redissolution was performed by 10 μl of DEPC water. After quantification, dilution was performed to 0.5 μg/μl.
(§2) RNA solutions and kit components were prepared into a system with a total volume of 20 μl according to a system proportion required in the specification, and a program temperature was set for reverse transcription.
Stage 1: reverse transcription at 37° C. for 15 min.
Stage 2: denaturation at 85° C. for 5 s.
Stage 1: initial denaturation at 95° C. for 1 min.
(§3) Stage 2: PCR reaction at 95° C. for 15 sec; for example, at 60° C. for 30 sec for 40 Cycles; and at 72° C. for 30 sec.
Stage 3: dissociation curve analysis at 65 to 95° C., 0.5° C./5s.
(§4) Specific methods were the same as those in section 2.1 in Embodiment 1.
(§5) Specific methods were the same as those in section 2.2 in Embodiment 1.

[1] = system: activated HSCs (HSC-T6 cells); assay: RT-PCR of fibrotic-related gene Acta2 mRNA in activated HSCs; conditions: after administration of SP
Description: as §1, §2, §3, §4, §5

FXR proteins = assay: SUMOylation ELISA of FXR proteins in activated HSCs
Description: as §1
After cell nuclear proteins were extracted according to specification requirements of an ELISA detection kit, primary antibodies and nuclear proteins of a cell sample were incubated for 60 min at the room temperature in a plate hole. SUMO specific detection antibodies were then supplemented and added according to the specification requirements. A color sensitizer was further added for color development. Then, absorbance at 655 nm was fast read. Relative quantitative analysis was performed.
as §4
Specific methods were the same as those in section 2.3 in Embodiment 1.

Row | Molecule | mRNA expression of Shp (FXR signaling pathway) | mRNA level of Shp (FXR signaling pathway) | mRNA level of Shp, an FXR target gene (FXR signaling pathway) | expression of fibrotic-related gene Acta2 [1] | SUMOylation level of FXR proteins (FXR proteins)
1 | CC(C)c1onc(-c2c(Cl)cccc2Cl)c1COc1ccc(/C=C/c2cccc(C(=O)O)c2)c(Cl)c1 [GW4064] | significantly up-regulated | none of the FXR agonists OCA, GW4064 and WAY-362450 could significantly up-regulate | could significantly up-regulate | significantly reduced | 
2 | CN[C@@H]1[C@H](O)[C@H](NC)[C@H]2O[C@@]3(O)C(=O)C[C@@H](C)O[C@H]3O[C@@H]2[C@H]1O [SP, spectinomycin] |  |  |  |  | could significantly reduce
3 | CC(C)OC(=O)C1=CN(C(=O)c2ccc(F)c(F)c2)CC(C)(C)c2c1[nH]c1ccccc21 [WAY-362450] | significantly up-regulated | none of the FXR agonists OCA, GW4064 and WAY-362450 could significantly up-regulate | could significantly up-regulate | significantly reduced | 
4 | ginkgolic acid [GA] |  |  |  |  | could significantly reduce
